Where no end group is shown, it is not given here.
Legend:
[1] = tested on: RPMI8226 cells; type: cell-based, human; conditions: for MTT value, VEGF-induced RPMI8226 cell proliferation: 10 ng/ml VEGF + 25 μM peptide, serum-free medium, solvent-treated/untreated cells set as 100%, three independent experiments
Procedure: Human multiple myeloma cells, RPMI8226 were purchased from Bioresource Collection and Research Center (Hsinchu, Taiwan). Cells were cultivated in RPMI1640 medium supplemented with 10% FBS, 50 μg/ml penicillin, 50 μg/ml streptomycin, and 2 mM L-glutamine at 37 °C in a 5% CO2 atmosphere. Cell viability was determined by an MTT assay. […] MTT stock solution added to medium alone was included as a negative control. Aliquots (450 μl) from each sample were transferred to a new well of a 48-well culture plate, 100 μl DMSO added with thorough mixing, and allowed to react at 37 °C for 20 min before reading the absorbance at 570 nm.

[2] = tested on: RPMI8226 cells; experiment: Annexin V-FITC/PI double-staining apoptosis assay in RPMI8226 cells; type: cell-based, human
Procedure: (§1) Cell apoptosis was examined using a TACS annexin V-FITC kit according to the manufacturer’s instructions for in situ staining. The cell numbers were monitored by counterstaining with Hoechst 33342. Afterward, apoptosis was examined and photographed by a Zeiss epifluorescence microscope (× 100, 10 fields/sample). Images were recorded on Zeiss software.
Fig. 2 The 34-mer and 7-mer induce apoptosis of RPMI8226 cells. a Fluorescence microscopy of annexin V-FITC/PI double staining. Treatment of RPMI8226 cells was as described in Fig. 1. Apoptosis was determined by annexin V-FITC staining (green dots) and double stained with propidium iodide (red dots). A representative of three independent experiments is shown. b The percentage of apoptotic cells was quantified by dividing the number of annexin V-positive cells by the total number of cells counted by phase-contrast light microscopy. Control peptide indicates cells were treated with the 5-mer. Histograms show means ± SD. ^aP < 0.005 versus peptide solvent-treated cells. ^bP < 0.0002 versus VEGF-treated cells. ^cP < 0.001 versus 34-mer-treated cells
Fig. 3 The 7-mer induces JNK signaling to trigger RPMI8226 cell apoptosis. 3 × 10^5 cells were serum starved for 24 h and then exposed to 10 ng/ml VEGF and 25 μM 7-mer for the indicated time periods. a Western blotting was performed to detect the active phosphorylated forms of JNK (p-JNK) and p38 MAPK (p-p38), shown in the upper panels. Antibodies were then stripped and the blots were re-incubated with anti-JNK and anti-p38 MAPK antibodies (lower panels), respectively, to detect the levels of total JNK and p38 MAPK. b Densitometric analyses from three independent experiments are shown. c Cell were pretreated with 10 μM SP600125 or SB203580 for 10 min and then treated as described above for 24 h and apoptosis was quantified using the annexin V-FITC apoptosis detection kit. *P < 0.0001 versus 7-mer-treated cells

[3] = tested on: HUVECs; experiment: Annexin V-FITC apoptosis assay in HUVECs; type: cell-based, human; conditions: 0.5% FBS, 16 h
Procedure: (§2) Cells were grown in Medium 200 with LSGS (supplement contains 1.9% fetal bovine serum, 3 ng/ml bFGF, 10 μg/ml heparin, 1 μg/ml hydrocortisone, and 10 ng/ml EGF). Culture plates were coated with 2% gelatin. Cells (passages 4–8) were cultured at 37 °C in a humidified atmosphere of 5% CO2. For peptide treatment, HUVECs were cultured in low serum (0.5% FBS) medium containing 20 ng/ml VEGF and 7-mer peptide (20 μM, unless otherwise specified).
as §1
The experiment was repeated three times. Magnification is × 40. b The 7-mer induces HUVEC apoptosis in the presence of VEGF. Cell apoptosis was analyzed using the Annexin V-FITC Apoptosis Detection kit according to the in situ staining protocol after treatment for 16 h. Double staining with an annexin V-FITC and the fluorescent dye Hoechst 33342 was used to visualize the apoptotic cells (green) and nuclei (blue), respectively. A representative result of four independent experiments is shown. The percentages of apoptotic cells were quantified. ^aP < 0.005 versus VEGF-treated cells

[4] = tested on: p53, Bax, p21, cleaved caspase-3; experiment: Western blot of p53, Bax, p21 and cleaved caspase-3 in RPMI8226 cells; type: cell-based, human; conditions: 10 μM inhibitor pretreatment, then VEGF + 25 μM 7-mer
Source text: Cell lysis and SDS–PAGE were as described previously. Antibodies used in this study were for active p38 MAPK and active JNK (Promega, Madison, WI), p38 MAPK/SAPK2, JNK (Upstate Biotechnology, Lake Placid, NY), p53 (Chemicon, Temecula, CA), bax, p21, cleaved caspase-3 and β-actin (Abcam Ltd., Cambridge, UK). Proteins of interest were detected using the appropriate IgG-horseradish peroxidase-linked secondary antibody (Santa Cruz Biotechnology) and enhanced chemiluminescence reagent (Amersham, Arlington Heights, IL). X-ray films were scanned on a model GS-700 Imaging Densitometer (Bio-Rad, Hercules, CA) and analyzed with Labworks 4.0 software. For quantification, blots from at least three independent experiments were used.
Fig. 4 The 7-mer induces JNK signaling to trigger p53/bax/p21^Waf1 expression in RPMI8226 cells. a and b Cell treatments were as described in Fig. 3. Cell lysates were then prepared for western blot analysis of p53, Bax, and p21. Representative blots and densitometric analyses from three independent experiments are shown. ^*P < 0.001 versus 7-mer-treated cells

[5] = tested on: HUVECs; experiment: Endothelial cell capillary-like tube formation assay; type: cell-based, human; conditions: 20 ng/ml VEGF, 10 μM 7-mer, matrigel, 0.5% FBS, 6 h
Procedure: as §2
Growth factor-reduced matrigel was pipetted into pre-chilled 24-well plates (150 μl matrigel per well) and polymerized for 45 min at 37 °C. HUVECs (4 × 10^4 per well) in low serum (0.5% FBS) medium were treated with 20 ng/ml VEGF and 7-mer (10 μM) in matrigel coated plates. After 6 h of incubation, tubular structures were photographed. Images were captured using a Cannon camera on a Zeiss inverted microscope with magnification × 40.
The experiment was repeated three times. Magnification is × 40. b The 7-mer induces HUVEC apoptosis in the presence of VEGF. Cell apoptosis was analyzed using the Annexin V-FITC Apoptosis Detection kit according to the in situ staining protocol after treatment for 16 h. Double staining with an annexin V-FITC and the fluorescent dye Hoechst 33342 was used to visualize the apoptotic cells (green) and nuclei (blue), respectively. […] The percentages of apoptotic cells were quantified. ^aP < 0.005 versus VEGF-treated cells

[6] = cited from earlier work; for anti-angiogenic and antitumor activities of human PEDF: previous studies
Source text: Pigment epithelial-derived factor (PEDF) was initially identified in the culture supernatant of human fetal retinal pigment epithelial cells, with the ability to promote neuronal differentiation of retinoblastoma Y79 cells. […] Presently, full-length PEDF is considered to be less suitable as an anti-angiogenic agent than PEDF-derived active fragments because of several issues, including antigenicity, s ... || Identification of angioinhibitory peptides derived from PEDF may be a promising strategy for improving the treatment of angiogenesis-related diseases. […] Here, we found for the first time that the 7-mer peptide (D64-S70), representing a minimal region within PEDF, reproduced the anti-VEGF effect, comparab ...

## VEGF
[1]; 10 ng/ml VEGF without peptide, 24 h, untreated cells set as 100%, mean ± SD
  MTT value, RPMI8226 cells with VEGF alone: 120 ± 3.9%
[2]; 10 ng/ml VEGF, serum-free, serum deprivation alone 14.0 ± 1.7%
  apoptotic (annexin V+) RPMI8226 cells with VEGF alone: 6.5 ± 1.1%
[3]; 20 ng/ml VEGF
  apoptotic HUVECs, VEGF-treated only: 6.3 ± 1.6%

## 7-mer D64 alanine substitution: 7-mer with single alanine substitution of D64 (ALYRVRS; ends and bridges not checked; UniProt P36955 64-70, looked up, variant D64A)
[1]; 24 h, mean ± SD
  MTT value, VEGF-induced RPMI8226 cell proliferation: 69 ± 3.5%

## Oc1c2ccccc2c2c3c(cccc13)N=N2 [SP600125, reference compound]
[2]; 10 μM inhibitor for 10 min, then 10 ng/ml VEGF + 25 μM 7-mer for 24 h, 7-mer alone 38.6 ± 2.1%
  7-mer-induced RPMI8226 cell apoptosis after inhibitor pretreatment: 11.6 ± 1.5%
[4]
  7-mer-induced increases of p53, bax, p21 and cleaved caspase-3 after inhibitor pretreatment: significantly inhibited

## 34-mer: PEDF amino acid positions Asp44-Asn77, N-acetylated, C-amidated (Ac-DPFFKVPVNKLAAAVSNFGYDLYRVRSSTSPTTN-NH2; UniProt P36955 44-77, looked up, fragment) [reference compound]
[1]
  cytotoxic effect on RPMI8226 cells in the absence of VEGF: neither peptide had a significant cytotoxic effect
[1]; 24 h, mean ± SD
  MTT value, VEGF-induced RPMI8226 cell proliferation: 84 ± 4.0%
[1]; 1, 5, 10 and 25 μM peptide with VEGF, MTT
  dose dependence of cell viability of VEGF-treated RPMI8226 cells: cell viability decreased significantly with the 34-mer treatment at 10 and 25 μM, but not at 1 and 5 μM
[2]; 10 ng/ml VEGF + 25 μM peptide, 24 h, serum-free, early + late apoptosis, mean ± SD, three independent experiments
  apoptotic (annexin V+) RPMI8226 cells: 25.1 ± 2.2%
[5]
  VEGF-stimulated tube-like network of HUVECs: marked decrease of the VEGF-stimulated tube-like network
[3]; 20 ng/ml VEGF + peptide (20 μM), four independent experiments
  apoptotic HUVECs (annexin V-FITC): 20.1 ± 4.4%
[6]
  neurotrophic activity: no neurotrophic activity
  anti-angiogenic and antitumor activities of human PEDF: preserve the anti-angiogenic and antitumor activities of human PEDF

## 23-mer: PEDF fragment A55-N77 of previous studies (AAAVSNFGYDLYRVRSSTSPTTN; UniProt P36955 55-77, looked up, fragment)
[6]
  anti-angiogenic and antitumor activities of human PEDF: devoid of PEDF activity

## 7-mer L65 alanine substitution: 7-mer with single alanine substitution of L65 (DAYRVRS; ends and bridges not checked; UniProt P36955 64-70, looked up, variant L65A)
[1]; 24 h, mean ± SD
  MTT value, VEGF-induced RPMI8226 cell proliferation: 74 ± 0.9%

## D64N/L65V double mutant of the 7-mer: 7-mer with D64N/L65V double mutation (NVYRVRS; ends and bridges not checked; UniProt P36955 64-70, looked up, variant D64N L65V)
[1]; 24 h, mean ± SD
  MTT value, VEGF-induced RPMI8226 cell proliferation: 117 ± 4.1%

## 18-mer: PEDF fragment Asn60-Asn77 of previous studies (NFGYDLYRVRSSTSPTTN; UniProt P36955 60-77, looked up, fragment)
[6]
  neurotrophic activity: no neurotrophic activity
  anti-angiogenic and antitumor activities of human PEDF: preserve the anti-angiogenic and antitumor activities of human PEDF

B1: PEDF: a 50 kDa secreted glycoprotein (protein, UniProt P36955 20-418, looked up)
Pigment epithelium-derived …: QNPASPPEEGSPDPDSTGALVEEEDPFFKVPVNKLAAAVSNFGYDLYRVRSSTSPTTNVLLSPLSVATALSALSLGAEQRTESIIHRALYYDLISSPDIHGTYKELLDTVTAPQKNLKSASRIVFEKKLRIKSSFVAPLEKSYGTRPRVLTGNPRLDLQEINNWVQAQMKGKLARSTKEIPDEISILLLGVAHFKGQWVTKFDSRKTSLEDFYLDEERTVRVPMMSDPKAVLRYGLDSDLSCKIAQLPLTGSMSIIFFLPLKVTQNLTLIEESLTSEFIHDIDRELKTVQAVLTVPKLKLSYEGEVTKSLQEMKLQSLFDSPDFSKITGKPIKLTQVEHRAGFEWNEDGAGTTPSPGLQPAHLTFPLDYHLNQPFIFVLRDTDTGALLFIGKILDPRGP
[1]; 24 h, mean ± SD
  MTT value, VEGF-induced RPMI8226 cell proliferation: 93 ± 3.8%
